From ChEMBL document CHEMBL1201862, “PubChem BioAssay data set” (2004)
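Where inhibition never reached the appropriate level, the endpoint shown equals the highest concentration tested. Otherwise, values were interpolated linearly from a five-concentration, 48-hour dose response in 96-well plates. GI50 = concentration required for 50% inhibition of growth.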 Calls of active or inactive are those of the source. Rule as the data show it: active = GI50 up to about 1.1 µM and inactive = higher.

Tests used:
Experiment in all cases: inhibition of tumour cell growth, NCI panel, 48 h
[1] = system: 786-0
[2] = system: CAKI-1
[3] = system: CCRF-CEM
[4] = system: HCC 2998
[5] = system: HOP-62
[6] = system: KM12
[7] = system: LOX IMVI
[8] = system: M14
[9] = system: NCI-H522
[10] = system: NCI/ADR-RES
[11] = system: OVCAR-3
[12] = system: OVCAR-4
[13] = system: OVCAR-5
[14] = system: OVCAR-8
[15] = system: SK-MEL-5
[16] = system: SK-OV-3
[17] = system: SR
[18] = system: UACC-62
[19] = system: HOP-18
[20] = system: KM-20L2

Structure (SMILES) | GI50 [1] | GI50 [2] | GI50 [3] | GI50 [4] | GI50 [5] | GI50 [6] | GI50 [7] | GI50 [8] | GI50 [9] | GI50 [10] | GI50 [11] | GI50 [12] | GI50 [13] | GI50 [14] | GI50 [15] | GI50 [16] | GI50 [17] | GI50 [18] | GI50 [19] | GI50 [20]
O=C(O)/C=N\N=c1[nH]c2ccccc2[nH]1 | > 100 µM (inactive) | > 100 µM (inactive) | > 100 µM (inactive) | > 100 µM (inactive) | > 100 µM (inactive) | > 100 µM (inactive) | > 100 µM (inactive) | > 100 µM (inactive) | > 100 µM (inactive) | > 100 µM (inactive) | > 100 µM (inactive) | > 100 µM (inactive) | > 100 µM (inactive) | > 100 µM (inactive) | > 100 µM (inactive) | > 100 µM (inactive) | > 100 µM (inactive) | > 100 µM (inactive) |  | 
CCOC(=O)c1cc(C(=O)O)c(=O)n2c1[nH]c1ccccc12 | > 100 µM (inactive) | > 100 µM (inactive) | > 100 µM (inactive) | > 100 µM (inactive) | > 100 µM (inactive) | > 100 µM (inactive) |  | > 100 µM (inactive) | 26.7 µM (inactive) |  | > 100 µM (inactive) | > 100 µM (inactive) |  | > 100 µM (inactive) | 60.8 µM (inactive) | 78.7 µM (inactive) |  | 44.5 µM (inactive) | 42.1 µM (inactive) | > 100 µM (inactive)
O=C(O)C1=C(O)C(C(=O)O)C23CCCCCCCCCCC12C(C(=O)O)C(O)=C3C(=O)O (centres undefined) | > 100 µM (inactive) |  | > 100 µM (inactive) | > 100 µM (inactive) |  | > 100 µM (inactive) |  | > 100 µM (inactive) | > 100 µM (inactive) |  | > 100 µM (inactive) |  | > 100 µM (inactive) | > 100 µM (inactive) | > 100 µM (inactive) | > 100 µM (inactive) | > 100 µM (inactive) |  | > 100 µM (inactive) | 
CC1(S)CC2C(CC1Sc1ccccc1)C2(C)C (centres undefined) | > 100 µM (inactive) |  | > 100 µM (inactive) | > 100 µM (inactive) |  | > 100 µM (inactive) |  | > 100 µM (inactive) |  |  | > 100 µM (inactive) | > 100 µM (inactive) | > 100 µM (inactive) | > 100 µM (inactive) | 8.67 µM (inactive) | > 100 µM (inactive) |  |  | > 100 µM (inactive) | 
CC(C)(C)C(=O)Oc1ccc(/C=C/C(=O)c2ccc(OC(=O)C(C)(C)C)cc2)cc1 | 36.7 µM (inactive) | 21.1 µM (inactive) | 6.53 µM (inactive) | > 100 µM (inactive) | 82.2 µM (inactive) | 16.6 µM (inactive) | 44.5 µM (inactive) | > 100 µM (inactive) | 3.12 µM (inactive) | 27.5 µM (inactive) | 27.5 µM (inactive) | 56.2 µM (inactive) | > 100 µM (inactive) | 40.4 µM (inactive) | > 100 µM (inactive) | > 100 µM (inactive) | 20.7 µM (inactive) | > 100 µM (inactive) |  | 
O=C(CN1CCN(Cc2ccccc2)CC1)c1ccc2[nH]c(=O)oc2c1 | > 100 µM (inactive) | > 100 µM (inactive) | > 100 µM (inactive) | > 100 µM (inactive) | > 100 µM (inactive) | > 100 µM (inactive) | > 100 µM (inactive) | > 100 µM (inactive) | 74.5 µM (inactive) | > 100 µM (inactive) | > 100 µM (inactive) | > 100 µM (inactive) | > 100 µM (inactive) | > 100 µM (inactive) | > 100 µM (inactive) | > 100 µM (inactive) | > 67.1 µM (inactive) | > 100 µM (inactive) |  | 
Cc1ccc(/C=C/C(=O)C(C)C)cc1 | 55 µM (inactive) |  | 22.9 µM (inactive) | > 100 µM (inactive) |  | 48.8 µM (inactive) |  | 58.7 µM (inactive) | 24.8 µM (inactive) |  | 32.1 µM (inactive) | > 100 µM (inactive) | 18.4 µM (inactive) | 96.8 µM (inactive) | 50.9 µM (inactive) | 74.3 µM (inactive) | 31.8 µM (inactive) | 37.2 µM (inactive) |  | 14.2 µM (inactive)
CC(=O)Nc1ccc(/C=c2\sc3nnc(/C=C/c4ccccc4)n3c2=O)cc1 | > 50 µM (inactive) | > 50 µM (inactive) | > 50 µM (inactive) | > 50 µM (inactive) | > 50 µM (inactive) | > 50 µM (inactive) | > 50 µM (inactive) | > 50 µM (inactive) | > 50 µM (inactive) |  | > 50 µM (inactive) | > 50 µM (inactive) | > 50 µM (inactive) | > 50 µM (inactive) | > 50 µM (inactive) | > 50 µM (inactive) |  | > 50 µM (inactive) | 17.1 µM (inactive) | > 50 µM (inactive)
CCOC(=O)Cc1c(Cc2[nH]c(C(=O)OCc3ccccc3)c(CC(=O)OCC)c2CC(=O)OCC)[nH]c(C(=O)OCc2ccccc2)c1CC(=O)OCC | > 100 µM (inactive) | > 100 µM (inactive) | > 100 µM (inactive) |  | > 100 µM (inactive) |  |  | > 100 µM (inactive) | > 100 µM (inactive) |  | > 100 µM (inactive) |  |  | > 100 µM (inactive) | > 100 µM (inactive) | > 100 µM (inactive) | > 100 µM (inactive) | > 100 µM (inactive) | > 100 µM (inactive) | > 100 µM (inactive)
C/C(=N\NC(=S)N1CCC(C2CCN(C(=S)N/N=C(\C)c3ccccn3)CC2)CC1)c1ccccn1 | 45.4 µM (inactive) | 68.1 µM (inactive) | > 100 µM (inactive) | > 100 µM (inactive) | > 100 µM (inactive) | > 100 µM (inactive) | 68.9 µM (inactive) | > 100 µM (inactive) | 63.5 µM (inactive) |  | 60.3 µM (inactive) | > 100 µM (inactive) | > 100 µM (inactive) | 46.7 µM (inactive) | 62.4 µM (inactive) | 38.4 µM (inactive) |  | > 100 µM (inactive) | > 100 µM (inactive) | > 100 µM (inactive)
CSC(=S)N(C)NC(=O)c1cccc(C(=O)NN(C)C(=S)SC)n1 | 19.4 µM (inactive) |  | 2.96 µM (inactive) |  | 17.1 µM (inactive) | 2.89 µM (inactive) | 31.4 µM (inactive) | 14.6 µM (inactive) | 15.2 µM (inactive) |  |  | 10.3 µM (inactive) | 4.88 µM (inactive) | 21.8 µM (inactive) | 15.7 µM (inactive) |  | 4.97 µM (inactive) | 14.3 µM (inactive) | 78.5 µM (inactive) | 4.07 µM (inactive)
S=C1NCCN1 | > 100 µM (inactive) | > 100 µM (inactive) | > 100 µM (inactive) |  | > 100 µM (inactive) | > 100 µM (inactive) | > 100 µM (inactive) | > 100 µM (inactive) | > 100 µM (inactive) |  | > 100 µM (inactive) | > 100 µM (inactive) | > 100 µM (inactive) | > 100 µM (inactive) | > 100 µM (inactive) | > 100 µM (inactive) | > 100 µM (inactive) | > 100 µM (inactive) |  | > 100 µM (inactive)
COc1ccc(C(=O)C(c2ccc(OC)cc2)C2(O)C(=O)Nc3ccccc32)cc1 (centres undefined) | > 100 µM (inactive) | > 100 µM (inactive) | > 100 µM (inactive) |  |  | > 100 µM (inactive) | 72.9 µM (inactive) | > 100 µM (inactive) | > 100 µM (inactive) |  | > 100 µM (inactive) |  |  |  |  | > 100 µM (inactive) | > 100 µM (inactive) | > 100 µM (inactive) |  | > 100 µM (inactive)
COC(=O)C1=C(C)N(NC(=O)c2ccccc2)C(C)(O)C12CCOC2=O (centres undefined) | 0.195 µM (active) | > 100 µM (inactive) | > 100 µM (inactive) | > 100 µM (inactive) | > 100 µM (inactive) | > 100 µM (inactive) | > 100 µM (inactive) | > 100 µM (inactive) | > 100 µM (inactive) |  | > 100 µM (inactive) | > 100 µM (inactive) | > 100 µM (inactive) | > 100 µM (inactive) |  | > 100 µM (inactive) |  | > 100 µM (inactive) | > 100 µM (inactive) | > 100 µM (inactive)
NC(=O)NCc1c(C(N)=O)ncn1Cc1ccccc1 | > 100 µM (inactive) | > 100 µM (inactive) | > 100 µM (inactive) | > 100 µM (inactive) | > 100 µM (inactive) |  | > 100 µM (inactive) | > 100 µM (inactive) |  |  | > 100 µM (inactive) | > 100 µM (inactive) |  | > 100 µM (inactive) | > 100 µM (inactive) | > 100 µM (inactive) |  | > 100 µM (inactive) | > 100 µM (inactive) | > 100 µM (inactive)
CCc1cccc(C)c1NC(=O)C(=O)CC(=O)c1ccc(Cl)s1 | > 100 µM (inactive) | > 100 µM (inactive) | > 100 µM (inactive) | > 100 µM (inactive) | > 100 µM (inactive) | > 100 µM (inactive) | > 100 µM (inactive) | > 100 µM (inactive) |  |  |  | > 100 µM (inactive) |  | > 100 µM (inactive) |  | > 100 µM (inactive) | > 100 µM (inactive) | > 100 µM (inactive) | > 100 µM (inactive) | > 100 µM (inactive)
CN(C)CCS/C(=N\c1ccccc1)N1CCCCC1 | 16.3 µM (inactive) | 47.6 µM (inactive) | 23.8 µM (inactive) |  | > 100 µM (inactive) | 16.5 µM (inactive) | 16.3 µM (inactive) | 16.4 µM (inactive) | 14.7 µM (inactive) |  | 16 µM (inactive) | 19.1 µM (inactive) | 17.6 µM (inactive) | 17.5 µM (inactive) | 16.1 µM (inactive) | 75.7 µM (inactive) | 18.6 µM (inactive) | 16 µM (inactive) | 17.9 µM (inactive) | 17.2 µM (inactive)
